Laboratory results from PubChem BioAssay AID1918936 (Molecular Pharmacology Branch, DTP, NCI, 2023).
Values joined by “and” are separate entries in the source; they are usually repeats but may differ in a detail not shown here. Identical values can stand only once.

Test system: 349418-098-R-PDC complex spheroid viability
Test: Anticancer human tumor 349418-098-R-PDC patient-derived lung adenocarcinoma cell line growth inhibition
Conditions: for viability, T/C: stronger effect = lower value
Outline: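 Complex spheroids of tumor cells with HUVEC and human MSCs, exposed to iadademstat combined with other agents. Each agent tested in half-log steps from near clinical Cmax (else 10 microM top), DMSO ≤0.25%.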

[1] = curve of first compound, second compound 0.1 µM
[2] = curve of first compound, second compound 0.316 µM
[3] = curve of first compound, second compound 1 µM
[4] = curve of first compound, second compound 3.16 µM
[5] = curve of first compound, second compound 10 µM
[6] = second compound 0.1 µM, first compound 0.00316 µM
[7] = second compound 0.1 µM, first compound 0.01 µM
[8] = second compound 0.1 µM, first compound 0.0316 µM
[9] = second compound 0.1 µM, first compound 0.1 µM
[10] = second compound 0.1 µM, first compound 0.316 µM
[11] = second compound 0.1 µM, first compound 1 µM
[12] = second compound 0.316 µM, first compound 0.00316 µM
[13] = second compound 0.316 µM, first compound 0.01 µM
[14] = second compound 0.316 µM, first compound 0.0316 µM
[15] = second compound 0.316 µM, first compound 0.1 µM
[16] = second compound 0.316 µM, first compound 0.316 µM
[17] = second compound 0.316 µM, first compound 1 µM
[18] = second compound 1 µM, first compound 0.00316 µM
[19] = second compound 1 µM, first compound 0.01 µM
[20] = second compound 1 µM, first compound 0.0316 µM
[21] = second compound 1 µM, first compound 0.1 µM
[22] = second compound 1 µM, first compound 0.316 µM
[23] = second compound 1 µM, first compound 1 µM
[24] = second compound 3.16 µM, first compound 0.00316 µM
[25] = second compound 3.16 µM, first compound 0.01 µM
[26] = second compound 3.16 µM, first compound 0.0316 µM
[27] = second compound 3.16 µM, first compound 0.1 µM
[28] = second compound 3.16 µM, first compound 0.316 µM
[29] = second compound 3.16 µM, first compound 1 µM
[30] = second compound 10 µM, first compound 0.00316 µM
[31] = second compound 10 µM, first compound 0.01 µM
[32] = second compound 10 µM, first compound 0.0316 µM
[33] = second compound 10 µM, first compound 0.1 µM
[34] = second compound 10 µM, first compound 0.316 µM
[35] = second compound 10 µM, first compound 1 µM
[36] = second compound 0.1 µM, first compound 0.000316 µM
[37] = second compound 0.1 µM, first compound 0.001 µM
[38] = second compound 0.316 µM, first compound 0.000316 µM
[39] = second compound 0.316 µM, first compound 0.001 µM
[40] = second compound 1 µM, first compound 0.000316 µM
[41] = second compound 1 µM, first compound 0.001 µM
[42] = second compound 3.16 µM, first compound 0.000316 µM
[43] = second compound 3.16 µM, first compound 0.001 µM
[44] = second compound 10 µM, first compound 0.000316 µM
[45] = second compound 10 µM, first compound 0.001 µM
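Also: spheroids exposed to agents for seven days before readout.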
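For viability, T/C in this document: 100% = DMSO vehicle control wells.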

| SMILES | IC50 [1] [nM] | IC50 [2] [nM] | IC50 [3] [nM] | IC50 [4] [nM] | IC50 [5] [nM] | viability, T/C [6] [%] | viability, T/C [7] [%] | viability, T/C [8] [%] | viability, T/C [9] [%] | viability, T/C [12] [%] | viability, T/C [13] [%] | viability, T/C [14] [%] | viability, T/C [15] [%] | viability, T/C [18] [%] | viability, T/C [19] [%] | viability, T/C [20] [%] | viability, T/C [21] [%] | viability, T/C [24] [%] | viability, T/C [25] [%] | viability, T/C [26] [%] | other results |
| --- | --- | --- | --- | --- | --- | --- | --- | --- | --- | --- | --- | --- | --- | --- | --- | --- | --- | --- | --- | --- | --- |
| Nc1ncn(C2CC(O)C(CO)O2)c(=O)n1 (centres undefined) + NC1CCC(NC2CC2c2ccccc2)CC1 | 24.8 | 46.5 | 27.4 | 19.4 | 11.1 | 78 | 75.6 | 43 | 28.6 | 72.8 | 75.7 | 55.2 | 36.7 | 89.5 | 73.5 | 46 | 31.4 | 83.2 | 56.7 | 45.3 | viability, T/C [10]: 26.1%; viability, T/C [11]: 24.2%; viability, T/C [16]: 25%; viability, T/C [17]: 22.7%; viability, T/C [22]: 27.8%; viability, T/C [23]: 23.3%; viability, T/C [27]: 34%; viability, T/C [28]: 23.7%; viability, T/C [29]: 21.9%; viability, T/C [30]: 80.9%; viability, T/C [31]: 50.5%; viability, T/C [32]: 36%; viability, T/C [33]: 27.5%; viability, T/C [34]: 23.3%; viability, T/C [35]: 20.4% |
| CC1(C)CCC(CN2CCN(c3ccc(C(=O)NS(=O)(=O)c4ccc(NCC5CCOCC5)c([N+](=O)[O-])c4)c(Oc4cnc5[nH]ccc5c4)c3)CC2)=C(c2ccc(Cl)cc2)C1 | – | – | – | – | – | – | – | – | – | – | – | – | – | – | – | – | – | – | – | – | viability, T/C (compound 0.0316 µM): 98.4% and 106%; viability, T/C (compound 0.1 µM): 88.2% and 103%; viability, T/C (compound 0.316 µM): 95.9% and 91.1%; viability, T/C (compound 1 µM): 84.3% and 68.4%; viability, T/C (compound 3.16 µM): 67.7% and 24.9%; viability, T/C (compound 10 µM): 13.5% and 0.24%; IC50 (curve of compound): 4560 nM and 1600 nM |
| CC1COCCN1c1cc(-c2ccnn2C)c2ccnc(-c3ccn[nH]3)c2n1 (centres undefined) + NC1CC1c1ccc(-c2cccc(O)c2)cc1 | < 3.16 | < 3.16 | < 3.16 | < 3.16 | < 3.16 | 27.6 | 16.8 | 8.87 | 6.42 | 25.8 | 15.6 | 8.79 | 6.08 | 23.5 | 14.9 | 8.57 | 6.23 | 22 | 16 | 8.3 | viability, T/C [10]: 5.35%; viability, T/C [11]: 4.21%; viability, T/C [16]: 5.05%; viability, T/C [17]: 4.22%; viability, T/C [22]: 4.88%; viability, T/C [23]: 4.83%; viability, T/C [27]: 5.96%; viability, T/C [28]: 5.3%; viability, T/C [29]: 4.55%; viability, T/C [30]: 16.9%; viability, T/C [31]: 12.8%; viability, T/C [32]: 6.32%; viability, T/C [33]: 5%; viability, T/C [34]: 4.59%; viability, T/C [35]: 3.83% |
| CC(C)CC(NC(=O)CNC(=O)c1cc(Cl)ccc1Cl)B1OC(=O)CC(CC(=O)O)(C(=O)O)O1 (centres undefined) + NC1CCC(NC2CC2c2ccccc2)CC1 | 0.62 | 0.661 | 0.681 | 0.596 | 0.606 | 4.81 | 1.88 | 1.17 | 1.44 | 4.46 | 1.83 | 1.73 | 1.09 | 4.37 | 1.55 | 1.3 | 0.81 | 4.76 | 1.66 | 1.29 | viability, T/C [36]: 89.2%; viability, T/C [37]: 22%; viability, T/C [38]: 97.2%; viability, T/C [39]: 23.5%; viability, T/C [40]: 96.5%; viability, T/C [41]: 26.8%; viability, T/C [42]: 82.2%; viability, T/C [43]: 23.4%; viability, T/C [27]: 0.98%; viability, T/C [44]: 90.5%; viability, T/C [45]: 18.7%; viability, T/C [30]: 4.32%; viability, T/C [31]: 1.66%; viability, T/C [32]: 1.03%; viability, T/C [33]: 0.65% |
| CC(C)CC(NC(=O)C(Cc1ccccc1)NC(=O)c1cnccn1)B(O)O (centres undefined) + NC1CC1c1ccc(-c2cccc(O)c2)cc1 | < 0.316 | < 0.316 | < 0.316 | < 0.316 | < 0.316 | 1.31 | 0.5 | 0.51 | 0.69 | 0.81 | 0.41 | 0.45 | 0.34 | 0.72 | 0.42 | 0.29 | 0.53 | 0.86 | 1.06 | 0.37 | viability, T/C [36]: 2.67%; viability, T/C [37]: 1.51%; viability, T/C [38]: 1.86%; viability, T/C [39]: 1.09%; viability, T/C [40]: 1.69%; viability, T/C [41]: 1.07%; viability, T/C [42]: 1.62%; viability, T/C [43]: 0.92%; viability, T/C [27]: 0.41%; viability, T/C [44]: 0.84%; viability, T/C [45]: 0.41%; viability, T/C [30]: 0.68%; viability, T/C [31]: 0.31%; viability, T/C [32]: 0.14%; viability, T/C [33]: 0.17% |
| Nc1ncn(C2CC(O)C(CO)O2)c(=O)n1 (centres undefined) + NC1CC1c1ccc(-c2cccc(O)c2)cc1 | 89.4 | 90.3 | 88.5 | 95.3 | 62.8 | 102 | 99.1 | 78.3 | 45.8 | 113 | 95 | 88.4 | 44.2 | 105 | 105 | 83.4 | 45.8 | 111 | 108 | 85.5 | viability, T/C [10]: 37.3%; viability, T/C [11]: 28.2%; viability, T/C [16]: 32.9%; viability, T/C [17]: 27.9%; viability, T/C [22]: 32.5%; viability, T/C [23]: 27.1%; viability, T/C [27]: 48.4%; viability, T/C [28]: 30.6%; viability, T/C [29]: 25.1%; viability, T/C [30]: 92.4%; viability, T/C [31]: 78.3%; viability, T/C [32]: 67.8%; viability, T/C [33]: 38.3%; viability, T/C [34]: 28%; viability, T/C [35]: 26.7% |
| CC(C)CC(NC(=O)CNC(=O)c1cc(Cl)ccc1Cl)B1OC(=O)CC(CC(=O)O)(C(=O)O)O1 (centres undefined) + NC1CC1c1ccc(-c2cccc(O)c2)cc1 | 0.846 | 0.809 | 0.802 | 0.839 | 0.646 | 5.55 | 2.78 | 1.26 | 1.31 | 4.64 | 1.64 | 1.2 | 0.9 | 5.1 | 1.67 | 1.15 | 0.9 | 4.76 | 1.62 | 0.95 | viability, T/C [36]: 108%; viability, T/C [37]: 40.2%; viability, T/C [38]: 114%; viability, T/C [39]: 35.6%; viability, T/C [40]: 109%; viability, T/C [41]: 36.1%; viability, T/C [42]: 115%; viability, T/C [43]: 38.4%; viability, T/C [27]: 1.19%; viability, T/C [44]: 94.3%; viability, T/C [45]: 22.8%; viability, T/C [30]: 3.46%; viability, T/C [31]: 1.24%; viability, T/C [32]: 0.47%; viability, T/C [33]: 0.62% |
| CC(C)CC(NC(=O)CNC(=O)c1cc(Cl)ccc1Cl)B1OC(=O)CC(CC(=O)O)(C(=O)O)O1 (centres undefined) | – | – | – | – | – | – | – | – | – | – | – | – | – | – | – | – | – | – | – | – | viability, T/C (compound 0.000316 µM): 88.8% and 103%; viability, T/C (compound 0.001 µM): 24.5% and 38.9%; viability, T/C (compound 0.00316 µM): 4.47% and 4.31%; viability, T/C (compound 0.01 µM): 2.14% and 2%; viability, T/C (compound 0.0316 µM): 1.69% and 1.05%; viability, T/C (compound 0.1 µM): 1.35% and 1.12%; IC50 (curve of compound): 0.633 nM and 0.818 nM |
